Data published in US7825151B2, “Hexahydro-cyclooctyl pyrazole cannabinoid modulators” (priority 2005, dated 2010).

Tests used:
[1] = biological target: T1, human CB1 receptor (Homo sapiens, UniProt P21554); experiment: Functional cell-based CRE β-gal assay, CB1 (adenylate cyclase activity); details: single test concentration 1 μM (footnote 2)
T1 construct: expressed in transfected cells; host or cells: SK-N-MC cells, stably transfected with pcDNA3 CB-1 (human)
From the text: (§1) The CB1 and CB2 receptors are G-protein coupled receptors (GPCR), which influence cell function via the Gi-protein. These receptors modulate the activity of intracellular adenylate cyclase, which in turn produces the intracellular signal messenger cyclic-AMP (cAMP).
(§2) At baseline, or during non-ligand bound conditions, these receptors are constitutively active and tonically suppress adenylate cyclase activity. The binding of an agonist causes further receptor activation and produces additional suppression of adenylate cyclase activity. The binding of an inverse agonist inhibits the constitutive activity of the receptors and results in an increase in adenylate cyclase activity.
(§3) By monitoring intracellular adenylate cyclase activity, the ability of compounds to act as agonists or inverse agonists can be determined.
(§4) Test compounds were evaluated in SK-N-MC cells which, using standard transfection procedures, were stably transfected with human cDNA for pcDNA3-CRE β-gal and pcDNA3 CB1 receptor (human) or pcDNA3 CB2 receptor (human). By expressing CRE β-gal, the cells produced β-galactosidase in response to CRE promoter activation by cAMP. Cells expressing CRE β-gal and either the human CB1 or CB2 receptor will produce less β-galactosidase when treated with a CB1/CB2 agonist and will produce more β-galactosidase when treated with a CB1/CB2 inverse agonist.
(§5) The cells were grown in 96-well plates under standard cell culture conditions at 37° C. in a 5% CO2 atmosphere. After 3 days, the media was removed and a test compound in media (wherein the media was supplemented with 2 mM L-glutamine, […] sodium pyruvate, 0.1% low fatty acid FBS (fetal bovine serum) and antibiotics) was added to the cell. The plates were incubated for 30 minutes at 37° C. and the plate cells were then treated with forskolin over a 4-6 hour period, then washed and lysed. The β-galactosidase activity was quantitated using commercially available kit reagents (Promega Corp. Madison, Wis.) and a Vmax Plate Reader (Molecular Devices, Inc).
(§6) The change in β-galactosidase activity was determined by setting a vehicle treated cell's activity value at 100% and expressing the β-galactosidase activity measured in a corresponding compound treated cell as a percent of the vehicle treated cell activity.
The EC50 value for functional activity for compounds tested was calculated by linear regression and was obtained from studies in which varying compound concentrations were used. Data provided for certain compounds is represented by percent change (%) in functional activity at a single test concentration: ^(1)10 μM and ^(2)1 μM.

[2] = biological target: T2, CB2 receptor (Homo sapiens, UniProt P34972); experiment: Functional cell-based CRE β-gal assay, CB2 (adenylate cyclase activity)
T2 construct: expressed in transfected cells; host or cells: SK-N-MC cells, stably transfected with pcDNA3 CB-2 (human)
From the text: as §1, §2, §3, §4, §5
For cells expressing CRE β-gal and the CB2 receptor, CB2 agonists reduced β-galactosidase activity in a dose-dependent manner and CB2 inverse agonists increase β-galactosidase activity in a dose-dependent manner.
as §6
The EC50 value for functional activity for compounds tested was calculated by linear regression and was obtained from studies in which varying compound concentrations were used.
The value of 29% for Compound 5 represents change in functional activity and was obtained from a study in which one compound concentration was used.

[3] = tested on: DSS induced colitis; experiment: Dextran sulfate sodium (DSS) induced colitis model; type: in vivo, Female Balb/c mice; details: for % Inh (Macro), % inhibition of colitis: macroscopic score
From the text: In the distal colon, the DSS colitis model is characterized by a discontinuous pattern of mucosal epithelial damage, infiltration of inflammatory cells (including macrophages, neutrophils and lymphocytes) into the mucosa and submucosa, […] wet weight of the colon, shrinkage of the colon length and diarrhea (see, Blumberg R. S., Saubermann L. J. and Strober W., Animal models of mucosal inflammation and their relation to human inflammatory bowel disease, Current Opinion in Immunology, 1999, Vol. 11: 648-656; Egger B., Bajaj-Elliott M., MacDonald T. T., Inglin R., Eysselein, V. E. and Buchler M. W., Characterization of acute murine dextran sodium sulphate colitis: Cytokine profile and dose dependency, Digestion, 2000, Vol. 62: 240-248; Stevceva L., Pavli P., Husband A. J. and Doe, W. F., The inflammatory infiltrate in the acute stage of the dextran sulphate sodium induced colitis: B cell response differs depending on the percentage of DSS used to induce it, BMC Clinical Pathology, 2001, Vol 1: 3-13; and Diaz-Granados, Howe K., Lu J. and McKay D. M., Dextran sulfate sodium-induced colonic histopathology, but not altered epithelial ion transport, is reduced by inhibition of phosphodiesterase activity, Amer. J. Pathology, 2000, Vol. 156: 2169-2177).
Female Balb/c mice (Taconic Farms, Germantown, N.Y.) (10-13 weeks old) were provided with a solution of 5% DSS (45 kD molecular weight, ICN chemicals, Newport, Calif.) in tap water ad libitum over a 7-day period. The DSS solution was replenished daily and the amount consumed was measured.
The mice (10 per treatment group) were orally administered a test compound on the day of colitis induction and then daily thereafter.
Six days after the initial DSS administration, the last test compound dose was administered.
Seven days after the initial DSS administration, the animals were sacrificed. The colons were resected, examined for signs of inflammation, weighed after removing fecal contents and the length from the aboral end of the cecum to the anus was measured. The fecal contents were examined for signs of diarrhea. The distal colon between the 1st and the 4th centimeter was removed and placed in 10% neutral buffered formalin for histological analysis.
The macroscopic observations of colon inflammation (a measure of colon damage), colon length and stool consistency and appearance were assigned a score and used to evaluate colitis severity.
The three observation scores for each colon were combined, whereby a combined score of 0 represents a normal colon and a combined score of 11 represents a maximally affected colon. Statistical analyses were performed in Graphpad Prism 4.0 using ANOVA.
Histological analyses of tissues consisted of staining paraffin-embedded tissue sections with hematoxylin-eosin dye. The tissues were examined using light microscopy by an investigator who was blinded to the sample groups.
The microscopic observations of epithelial damage, cellular infiltration and damage or alteration of smooth muscle architecture (a measure of muscle damage) were assigned a score and used to evaluate colitis severity.
The scores for each colon were combined, whereby a combined score of 0 represents a normal colon and a combined score of 9 represents a maximally affected colon. […]
The Macroscopic Score and Microscopic Score results for each treatment group were each combined into a mean score and expressed as % inhibition of colitis (% Inh). […] ND represents Not Determined.

T2 sequence (P34972 whole entry): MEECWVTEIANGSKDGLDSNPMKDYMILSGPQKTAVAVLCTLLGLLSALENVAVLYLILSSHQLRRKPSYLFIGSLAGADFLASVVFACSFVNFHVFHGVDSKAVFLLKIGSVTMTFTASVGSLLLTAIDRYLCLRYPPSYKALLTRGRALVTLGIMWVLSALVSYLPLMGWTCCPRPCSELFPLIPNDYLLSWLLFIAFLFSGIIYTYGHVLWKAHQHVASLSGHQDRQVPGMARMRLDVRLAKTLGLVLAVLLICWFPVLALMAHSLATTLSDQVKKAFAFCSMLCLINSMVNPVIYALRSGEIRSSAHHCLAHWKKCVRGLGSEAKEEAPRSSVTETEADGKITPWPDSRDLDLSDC
T1 sequence (P21554 whole entry): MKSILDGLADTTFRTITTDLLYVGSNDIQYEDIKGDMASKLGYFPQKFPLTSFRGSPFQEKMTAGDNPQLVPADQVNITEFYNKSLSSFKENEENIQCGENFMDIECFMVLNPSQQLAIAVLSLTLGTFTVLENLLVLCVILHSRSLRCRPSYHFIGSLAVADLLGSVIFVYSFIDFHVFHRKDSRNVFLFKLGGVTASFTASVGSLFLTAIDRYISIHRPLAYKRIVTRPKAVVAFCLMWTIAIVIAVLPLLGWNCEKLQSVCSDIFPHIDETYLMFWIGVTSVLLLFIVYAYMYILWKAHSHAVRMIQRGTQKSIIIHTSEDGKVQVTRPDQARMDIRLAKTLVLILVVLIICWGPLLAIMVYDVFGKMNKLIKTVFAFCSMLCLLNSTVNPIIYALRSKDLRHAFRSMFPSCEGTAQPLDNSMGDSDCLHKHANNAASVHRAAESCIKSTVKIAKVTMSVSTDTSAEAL

SMILES: O=C(NCC12CC3CC(CC(C3)C1)C2)c1nn(C2CCCCC2)c2c1CCCCCC2 [Cpd 2, 1-cyclohexyl-4,5,6,7,8,9-hexahydro-1H-cyclooctapyrazole-3-carboxylic acid (adamantan-1-ylmethyl)-amide]
- CB1 receptor percent change in functional activity [1]: ^(2)−71%
- EC50 [2]: 6.6 nM
- % Inh (Macro), % inhibition of colitis ([3]; 1 mg/kg oral daily): −4.3 ± 12.9%
- % Inh (Macro), % inhibition of colitis ([3]; 5 mg/kg oral daily): 21.9 ± 15.2%
- % Inh (Micro), % inhibition of colitis ([3]; 5 mg/kg oral daily, microscopic score): 75.7 ± 8.9%
- % Inh (Macro), % inhibition of colitis ([3]; 10 mg/kg oral daily): 50.5 ± 9.0%
- % Inh (Macro), % inhibition of colitis ([3]; 20 mg/kg oral daily): 31.6 ± 8.5%
